Measured values from patent US20240277813A1, “TREATMENT OF OBESITY AND OBESITY-RELATED DISORDERS” (ANTAG THERAPEUTICS APS, priority 2021, published 2024).
Entries after “also recorded” stand apart in the source; their conditions may differ. *1 amine or outer side, *2 acyl side, *3 side chain or, on linkers, in order; H or OH if unused. Where a SMILES comes first, the peptide text is derived from it. Where no end group is shown, it is not given here. Side-chain parts run from the residue outwards. [ ]: non-standard residue; d: D form. The star is where a group is joined. C18 diacid = O=C(O)CCCCCCCCCCCCCCCCC(=O)*; C16 diacid = O=C(O)CCCCCCCCCCCCCCC(=O)*; γGlu = O=C(O)[C@H](CCC(=O)[*:2])N[*:1]; Glutaryl = O=C(CCCC(=O)[*:2])[*:1]; Nle = CCCC[C@H](N)C(=O)O; AEEA = NCCOCCOCC(=O)O; Aib = CC(C)(N)C(=O)O

Tests used:
[1] = test system: mice on a fat-diet, or lean mice; conditions: cited from earlier work; for absolute body weight or cumulative food intake: chronic administration, compared with vehicle control
DPP-IV enzyme = DPP-IV enzyme (Homo sapiens, UniProt P27487); conditions: cited from earlier work
Sequence of DPP-IV enzyme (P27487 whole entry, species assumed): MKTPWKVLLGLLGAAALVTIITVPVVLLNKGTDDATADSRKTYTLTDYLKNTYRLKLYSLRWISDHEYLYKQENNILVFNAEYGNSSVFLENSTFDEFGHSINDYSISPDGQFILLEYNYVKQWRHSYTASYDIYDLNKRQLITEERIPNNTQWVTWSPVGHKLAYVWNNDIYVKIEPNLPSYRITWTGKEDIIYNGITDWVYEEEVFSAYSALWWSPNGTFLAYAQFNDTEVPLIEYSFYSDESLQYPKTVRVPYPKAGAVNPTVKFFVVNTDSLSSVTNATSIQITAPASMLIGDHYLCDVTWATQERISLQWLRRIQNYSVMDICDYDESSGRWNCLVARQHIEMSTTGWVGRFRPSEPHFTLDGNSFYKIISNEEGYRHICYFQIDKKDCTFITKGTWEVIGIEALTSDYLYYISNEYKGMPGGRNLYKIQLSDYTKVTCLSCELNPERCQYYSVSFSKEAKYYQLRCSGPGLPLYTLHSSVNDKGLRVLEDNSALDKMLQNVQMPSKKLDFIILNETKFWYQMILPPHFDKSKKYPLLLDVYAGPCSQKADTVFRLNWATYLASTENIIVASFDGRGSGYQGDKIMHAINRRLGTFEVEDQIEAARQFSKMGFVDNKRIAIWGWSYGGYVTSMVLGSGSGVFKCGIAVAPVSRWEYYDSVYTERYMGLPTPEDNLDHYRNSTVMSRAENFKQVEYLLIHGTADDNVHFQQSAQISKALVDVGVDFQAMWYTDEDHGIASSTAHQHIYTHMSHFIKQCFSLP

[2] = test system: High fat diet (HFD) induced obese cynomolgus monkeys; assay: cynomolgus monkey efficacy study, 42 days daily SC treatment; assay type: in vivo, cynomolgus monkeys (Macaca fascicularis)
Protocol: Cynomolgus monkeys (Macaca fascicularis) were fed a HFD consisting of 50 g of KBI proprietary standard monkey formula feed in the morning 9:00 to 10:00 AM, 150 g apple in the afternoon 14:00 to 15:00 PM, and 100 g of KBI proprietary HFD in the evening 16:00 to 17:00 PM. Water was provided ad libitum. […] Values represent means±SEM, n=9-10 per group.
High fat diet (HFD) induced obese cynomolgus monkeys (Macaca fascicularis, male, >7.5 kg, fasting glucose<90 mg/dL, fasting insulin<60 μU/mL, >8 years of age) were obtained from KBI's stock colony. Lighting in animal holding rooms was maintained on 12:12 hour light:dark cycle, and the ambient temperature and humidity range was set at 18-29 degrees C. and 30 to 90%, respectively. The monkeys were individually housed in cages arranged to allow visual and auditory contacts with conspecifics. The monkeys were provided with cage toys for environmental enrichment to ensure adequate welfare and psychological well-being.
8 days prior to the treatment phase, and KBI's proprietary HFD was provided adlibitum which is in contrast to the defined amount of 100 g that the monkeys were normally served. During the entire treatment phase (42 days) and washout period (14 days) monkeys were provided three meals per day consisting of 50 g of KBI proprietary standard monkey formula feed in the morning 9:00-10:00 AM, one regular apple (150 g) in the afternoon 14:00-15:00 PM, and ad libitum of KBI proprietary HFD in the evening 16:00-17:00 PM. Water was provided adlibitum.
The cynomolgus monkeys were acclimated/trained to experimental procedures for three weeks followed by one week with continued training and introduction of adlibitum HFD prior to start of treatment. The monkeys were randomly sorted into six separate dose groups with 10 animals each based on acclimation data sets.
Daily food intake measurements were recorded during the entire duration of the study from the acclimation period until the end of the washout period. After each feeding time, all of the remaining food was withdrawn and intake was determined by weighing the left-over food.
Body weights were measured every third to fourth day during the study period. The monkeys were non-sedated and were transferred into small transfer cages and transported to a weighing scale. The tare weights of the transfer cages were determined prior to weighing the monkeys inside the transfer cages. The monkeys were weighed twice inside the transfer cages and recordings were made to the nearest 0.1 kg.
Whole blood sample was collected from a peripheral vein after an overnight fast according to the specified time points and transferred directly into serum separation tubes (SST). Serum was separated by centrifugation at 2500×g for 10 min at 4° C. Insulin, CTX and PTH levels were analyzed using the Cobas e411 Immunology analyzer. Other parameters were analyzed using the Roche C311 or C501 biochemical analyzer.

[3] = in vivo
From the text: During the treatment period all monkeys received daily SC injections after breakfast with the respective test substance for a total of 42 days. […] All treatment groups and the vehicle group received injection volumes based on individual body weights. After the 42 days of treatment, body weight, food intake, and blood/serum chemistries were monitored for an additional 14-day washout period. Blood collections and dosing occurred in conscious monkeys for the entire study.

high-fat mice = conditions: daily intraperitoneal injections, cited from earlier work; for glucose tolerance / glycaemic control: compared with high-fat controls

NaAc-K10[γEγE-C16]-Arg18-hGIP(5-42) [GIPA-2]
absolute body weight or cumulative food intake [1]: no effect | GIPR antagonist potency in mice (comparison) ([1]; in mice): more potent antagonist than GIPA-1 | glucose stimulated insulin secretion ([1]; in mice): inhibited glucose stimulated insulin secretion

mouse GIP(3-30)NH2 (EGTFISDYSIAMDKIRQQDFVNWLLAQR-NH2; UniProt P48756 46-73, looked up, fragment) [GIPA-1, GIPR antagonist GIP peptide of West et al. 2021]
absolute body weight or cumulative food intake [1]: no effect

GLP-1: 31-amino acid peptide derived from the proglucagon gene, secreted by intestinal L-cells
half-life (DPP-IV enzyme): approximately 2 minutes

EGTFISEYSIAibLEKIKQQEFVEWLLAQKPSSGAPPPS-C16-diacid/18K (GIP(3-30)+Cex(31-39) [D9E;A13Aib;M14L;D15E;H18K;D21E;N24E]) (EGTFISEYSI[Aib]LEKIK(C16 diacid)QQEFVEWLLAQKPSSGAPPPS; ends and bridges not checked) [Compound 1]
body weight during the study period (in words) ([2]; 42 days treatment, placebo gained 9%): maintained body weight; also recorded: no change in weight | fasting triglycerides (in words) ([2]; FIG. 1D): reduced fasting triglycerides | average HOMA-IR (Homeostatic Model Assessment for Insulin Resistance) ([2]; at day 43, FIG. 1C, placebo 25.1): 13.0 | reduction in LDL-c (individual %-change from predose) ([2]; from predose): 26%

CCCC[C@H](NC(=O)C(C)(C)NC(=O)[C@@H](NC(=O)[C@H](CO)NC(=O)[C@H](Cc1ccc(O)cc1)NC(=O)[C@H](CCC(=O)O)NC(=O)[C@H](CO)NC(=O)[C@@H](NC(=O)[C@H](Cc1ccccc1)NC(=O)[C@@H](NC(=O)CNC(=O)CCCC(=O)O)[C@@H](C)O)[C@@H](C)CC)[C@@H](C)CC)C(=O)N[C@@H](CCC(=O)O)C(=O)N[C@@H](CCCCN)C(=O)N[C@H](C(=O)N[C@@H](CCCCNC(=O)COCCOCCNC(=O)COCCOCCNC(=O)CC[C@H](NC(=O)CCCCCCCCCCCCCCCCC(=O)O)C(=O)O)C(=O)N[C@@H](CCC(N)=O)C(=O)N[C@@H](CCC(N)=O)C(=O)N[C@@H](CCC(=O)O)C(=O)N[C@@H](Cc1ccccc1)C(=O)N[C@H](C(=O)N[C@@H](CCC(=O)O)C(=O)N[C@@H](Cc1c[nH]c2ccccc12)C(=O)N[C@@H](CC(C)C)C(=O)N[C@@H](CC(C)C)C(=O)N[C@@H](C)C(=O)N[C@@H](CCC(N)=O)C(=O)N[C@@H](CCCCN)C(=O)N1CCC[C@H]1C(=O)N[C@@H](CO)C(=O)N[C@@H](CO)C(=O)NCC(=O)N[C@@H](C)C(=O)N1CCC[C@H]1C(=O)N1CCC[C@H]1C(=O)N1CCC[C@H]1C(=O)N[C@@H](CO)C(=O)O)C(C)C)[C@@H](C)CC [Compound 2] (Glutaryl-GTFISEYSI[Aib][Nle]EKIK([AEEA-AEEA-γGlu-C18 diacid])QQEFVEWLLAQKPSSGAPPPS-OH)
half life (in words) [3]: long half live

(d-Ala8)GLP-1
glucose tolerance (high-fat mice): significantly improved glucose tolerance | glycaemic control (high-fat mice): restored glycaemic control to normal levels | food intake and body weights (high-fat mice): not affected

(Pro3)GIP
glucose tolerance (high-fat mice): significantly improved glucose tolerance | glycaemic control (high-fat mice): restored glycaemic control to normal levels | food intake and body weights (high-fat mice): not affected
